Test results: ChEMBL document CHEMBL2176888, “Structure-activity relationships in human Toll-like receptor 8-active 2,3-diamino-furo[2,3-c]pyridines” (J Med Chem, 2012)
Calls of active or inactive are those of the source. The rule behind the calls is not given here.

What was measured:
PBMC [1] = assay: Induction of proinflammatory cytokine release in human PBMC after 12 hrs; type: cell-based
PBMC [2] = assay: Induction of transcriptional signature of inflammatory gene expression in human PBMC cells after 2 hrs; type: cell-based
PBMC [3] = assay: Up-regulation of CXCL gene in human PBMC cells after 2 hrs; type: cell-based
[4] = molecular target: T1, Toll-like receptor 8 (Homo sapiens) (UniProt Q9NR97); assay: (§1) Agonist activity at human TLR8 expressed in HEK293 cells assessed as induction of NF-kappaB activity by measuring extracellular secreted alkaline phosphatase by HEK-blue reporter gene assay; type: functional, cell-based
T1 sequence (whole entry): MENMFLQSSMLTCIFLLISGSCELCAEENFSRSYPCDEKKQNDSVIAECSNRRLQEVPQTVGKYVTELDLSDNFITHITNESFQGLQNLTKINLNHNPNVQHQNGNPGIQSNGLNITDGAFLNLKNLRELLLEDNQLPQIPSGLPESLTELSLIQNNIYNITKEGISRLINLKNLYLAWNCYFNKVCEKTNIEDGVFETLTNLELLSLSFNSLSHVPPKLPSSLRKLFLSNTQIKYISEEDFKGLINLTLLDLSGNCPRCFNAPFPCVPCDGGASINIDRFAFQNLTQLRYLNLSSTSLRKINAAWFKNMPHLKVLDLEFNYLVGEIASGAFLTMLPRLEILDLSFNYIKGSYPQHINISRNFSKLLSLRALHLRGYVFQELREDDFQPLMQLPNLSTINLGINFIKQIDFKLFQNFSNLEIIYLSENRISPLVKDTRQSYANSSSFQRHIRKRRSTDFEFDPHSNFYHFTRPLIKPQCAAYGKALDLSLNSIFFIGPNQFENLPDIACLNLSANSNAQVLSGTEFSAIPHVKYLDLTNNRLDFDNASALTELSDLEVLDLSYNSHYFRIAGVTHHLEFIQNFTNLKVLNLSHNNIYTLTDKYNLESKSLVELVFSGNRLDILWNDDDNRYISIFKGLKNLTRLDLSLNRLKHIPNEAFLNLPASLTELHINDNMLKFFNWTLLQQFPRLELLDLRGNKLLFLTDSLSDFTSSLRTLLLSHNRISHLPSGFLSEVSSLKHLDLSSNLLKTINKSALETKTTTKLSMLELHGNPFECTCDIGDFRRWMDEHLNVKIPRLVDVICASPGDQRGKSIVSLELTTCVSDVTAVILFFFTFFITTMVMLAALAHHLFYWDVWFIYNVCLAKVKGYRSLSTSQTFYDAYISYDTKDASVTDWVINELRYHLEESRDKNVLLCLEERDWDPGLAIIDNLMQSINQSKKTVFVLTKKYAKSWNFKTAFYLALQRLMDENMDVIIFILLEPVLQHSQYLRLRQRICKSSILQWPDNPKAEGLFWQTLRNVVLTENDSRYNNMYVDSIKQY

Toll-like receptor 8 = molecular target: T2, Toll-like receptor 8 (Homo sapiens, UniProt Q9NR97); assay: as §1; type: functional, cell-based; details: read-out: EC50
T2 sequence (Q9NR97 whole entry): T1 sequence (whole entry)

PBMC [5] = assay: Up-regulation of CCL gene in human PBMC cells after 2 hrs; type: cell-based
[6] = molecular target: T3, Toll-like receptor 9 (Homo sapiens) (UniProt Q9NR96); assay: Agonist activity at human TLR9 expressed in HEK293 cells assessed as induction of NF-kappaB activity by measuring extracellular secreted alkaline phosphatase up to 250 uM by HEK-blue reporter gene assay; type: functional, cell-based
T3 sequence (whole entry): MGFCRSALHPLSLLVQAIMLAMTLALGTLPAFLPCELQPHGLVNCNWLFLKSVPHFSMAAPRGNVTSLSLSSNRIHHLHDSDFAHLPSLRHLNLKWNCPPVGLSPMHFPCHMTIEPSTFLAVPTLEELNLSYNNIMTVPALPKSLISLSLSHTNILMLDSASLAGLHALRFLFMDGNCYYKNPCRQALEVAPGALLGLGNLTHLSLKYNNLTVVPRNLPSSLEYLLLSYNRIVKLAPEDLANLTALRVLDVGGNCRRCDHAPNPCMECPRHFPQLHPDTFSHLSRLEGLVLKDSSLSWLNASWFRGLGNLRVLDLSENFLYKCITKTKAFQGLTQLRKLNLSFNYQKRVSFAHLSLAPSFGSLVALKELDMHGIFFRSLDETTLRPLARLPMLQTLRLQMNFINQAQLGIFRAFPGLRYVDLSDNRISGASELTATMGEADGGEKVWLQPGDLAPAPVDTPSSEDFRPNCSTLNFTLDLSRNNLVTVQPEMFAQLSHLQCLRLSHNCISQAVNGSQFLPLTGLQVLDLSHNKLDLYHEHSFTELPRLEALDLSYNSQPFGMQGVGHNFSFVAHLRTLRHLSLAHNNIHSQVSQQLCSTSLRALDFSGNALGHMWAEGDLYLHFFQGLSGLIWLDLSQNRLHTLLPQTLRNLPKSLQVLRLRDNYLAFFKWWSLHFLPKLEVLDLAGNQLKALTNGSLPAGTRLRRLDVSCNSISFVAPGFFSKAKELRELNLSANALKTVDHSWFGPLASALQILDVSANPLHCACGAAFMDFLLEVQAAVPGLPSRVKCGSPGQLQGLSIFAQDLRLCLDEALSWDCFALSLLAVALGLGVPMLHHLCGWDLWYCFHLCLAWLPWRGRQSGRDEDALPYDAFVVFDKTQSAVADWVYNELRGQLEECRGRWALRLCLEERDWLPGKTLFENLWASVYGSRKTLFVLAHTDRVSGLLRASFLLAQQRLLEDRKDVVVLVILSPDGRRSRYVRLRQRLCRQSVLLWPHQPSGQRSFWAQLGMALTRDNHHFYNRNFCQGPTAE

[7] = molecular target: T1, Toll-like receptor 8 (Homo sapiens); assay: Agonist activity at human TLR8 expressed in HEK293 cells assessed as induction of NF-kappaB activity by measuring extracellular secreted alkaline phosphatase up to 250 uM by HEK-blue reporter gene assay; type: functional, cell-based
[8] = molecular target: T4, Toll-like receptor 7 (Homo sapiens) (UniProt Q9NYK1); assay: Agonist activity at human TLR7 expressed in HEK293 cells assessed as induction of NF-kappaB activity by measuring extracellular secreted alkaline phosphatase up to 250 uM by HEK-blue reporter gene assay; type: functional, cell-based
T4 sequence (whole entry): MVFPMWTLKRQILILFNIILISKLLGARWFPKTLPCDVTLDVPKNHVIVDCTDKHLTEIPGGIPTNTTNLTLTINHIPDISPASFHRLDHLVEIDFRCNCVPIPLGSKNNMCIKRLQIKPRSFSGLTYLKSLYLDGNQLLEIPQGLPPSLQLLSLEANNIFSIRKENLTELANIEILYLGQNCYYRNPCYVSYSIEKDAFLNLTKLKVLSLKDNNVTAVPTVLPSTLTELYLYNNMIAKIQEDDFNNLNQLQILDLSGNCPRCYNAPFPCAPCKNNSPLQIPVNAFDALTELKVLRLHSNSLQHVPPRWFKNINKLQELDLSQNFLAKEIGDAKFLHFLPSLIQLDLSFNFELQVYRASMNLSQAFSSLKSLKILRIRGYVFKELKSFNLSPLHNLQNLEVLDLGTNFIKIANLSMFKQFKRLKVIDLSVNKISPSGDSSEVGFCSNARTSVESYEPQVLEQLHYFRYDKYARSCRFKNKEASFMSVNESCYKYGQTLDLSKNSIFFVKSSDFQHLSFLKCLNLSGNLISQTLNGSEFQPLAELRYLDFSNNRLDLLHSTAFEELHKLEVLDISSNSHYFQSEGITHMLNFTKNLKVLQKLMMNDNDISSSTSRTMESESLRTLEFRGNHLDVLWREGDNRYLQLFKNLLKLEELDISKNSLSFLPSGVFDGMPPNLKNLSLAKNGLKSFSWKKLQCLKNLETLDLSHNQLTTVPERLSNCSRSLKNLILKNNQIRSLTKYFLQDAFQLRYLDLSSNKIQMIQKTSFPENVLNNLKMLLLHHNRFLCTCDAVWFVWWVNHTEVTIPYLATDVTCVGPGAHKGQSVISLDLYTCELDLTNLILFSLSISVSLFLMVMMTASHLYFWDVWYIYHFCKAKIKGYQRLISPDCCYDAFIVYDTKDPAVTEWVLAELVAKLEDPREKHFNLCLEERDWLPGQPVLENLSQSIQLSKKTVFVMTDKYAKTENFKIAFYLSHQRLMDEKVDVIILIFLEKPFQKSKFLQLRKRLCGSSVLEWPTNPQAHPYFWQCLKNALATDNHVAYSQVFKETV

[9] = molecular target: Toll-like receptor 5 (Homo sapiens) (UniProt O60602); assay: Agonist activity at human TLR5 expressed in HEK293 cells assessed as induction of NF-kappaB activity by measuring extracellular secreted alkaline phosphatase up to 250 uM by HEK-blue reporter gene assay; type: functional, cell-based
[10] = molecular target: Toll-like receptor 4 (Homo sapiens) (UniProt O00206); assay: Agonist activity at human TLR4 expressed in HEK293 cells assessed as induction of NF-kappaB activity by measuring extracellular secreted alkaline phosphatase up to 250 uM by HEK-blue reporter gene assay; type: functional, cell-based
[11] = molecular target: Toll-like receptor 3 (Homo sapiens) (UniProt O15455); assay: Agonist activity at human TLR3 expressed in HEK293 cells assessed as induction of NF-kappaB activity by measuring extracellular secreted alkaline phosphatase up to 250 uM by HEK-blue reporter gene assay; type: functional, cell-based
Oryctolagus cuniculus = organism: Oryctolagus cuniculus; assay: Adjuvantic activity in New Zealand White rabbit immunized with bovine alpha-lactalbumin on day 1, 15, and 28 assessed as anti-alpha-lactalbumin IgG level in serum at 100 ug measured on day 38 by ELISA; type: functional, organism-based

Sequence of Toll-like receptor 3 (Homo sapiens) (O15455 whole entry): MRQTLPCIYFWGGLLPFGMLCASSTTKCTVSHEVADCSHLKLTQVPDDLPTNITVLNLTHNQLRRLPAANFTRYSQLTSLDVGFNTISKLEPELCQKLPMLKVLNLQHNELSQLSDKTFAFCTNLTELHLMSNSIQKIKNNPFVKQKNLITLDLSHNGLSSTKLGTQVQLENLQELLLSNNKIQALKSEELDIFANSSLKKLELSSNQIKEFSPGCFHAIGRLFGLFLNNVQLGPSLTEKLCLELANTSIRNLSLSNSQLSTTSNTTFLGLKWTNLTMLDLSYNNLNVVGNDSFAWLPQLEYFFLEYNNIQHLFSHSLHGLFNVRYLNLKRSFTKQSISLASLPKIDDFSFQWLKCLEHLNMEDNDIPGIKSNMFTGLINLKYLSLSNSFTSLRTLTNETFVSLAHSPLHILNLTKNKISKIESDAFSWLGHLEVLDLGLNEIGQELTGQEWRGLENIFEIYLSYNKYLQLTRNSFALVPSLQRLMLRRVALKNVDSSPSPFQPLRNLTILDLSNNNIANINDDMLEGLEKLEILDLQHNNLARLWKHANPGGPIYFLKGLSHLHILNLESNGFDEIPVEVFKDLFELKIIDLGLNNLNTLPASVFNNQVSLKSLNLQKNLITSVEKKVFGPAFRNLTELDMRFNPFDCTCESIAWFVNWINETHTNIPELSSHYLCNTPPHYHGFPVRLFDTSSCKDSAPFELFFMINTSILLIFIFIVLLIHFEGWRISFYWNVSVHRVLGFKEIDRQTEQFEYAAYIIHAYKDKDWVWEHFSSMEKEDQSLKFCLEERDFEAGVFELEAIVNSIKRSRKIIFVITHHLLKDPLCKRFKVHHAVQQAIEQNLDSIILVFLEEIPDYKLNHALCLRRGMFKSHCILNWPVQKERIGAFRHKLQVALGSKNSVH
Sequence of Toll-like receptor 4 (Homo sapiens) (O00206 whole entry): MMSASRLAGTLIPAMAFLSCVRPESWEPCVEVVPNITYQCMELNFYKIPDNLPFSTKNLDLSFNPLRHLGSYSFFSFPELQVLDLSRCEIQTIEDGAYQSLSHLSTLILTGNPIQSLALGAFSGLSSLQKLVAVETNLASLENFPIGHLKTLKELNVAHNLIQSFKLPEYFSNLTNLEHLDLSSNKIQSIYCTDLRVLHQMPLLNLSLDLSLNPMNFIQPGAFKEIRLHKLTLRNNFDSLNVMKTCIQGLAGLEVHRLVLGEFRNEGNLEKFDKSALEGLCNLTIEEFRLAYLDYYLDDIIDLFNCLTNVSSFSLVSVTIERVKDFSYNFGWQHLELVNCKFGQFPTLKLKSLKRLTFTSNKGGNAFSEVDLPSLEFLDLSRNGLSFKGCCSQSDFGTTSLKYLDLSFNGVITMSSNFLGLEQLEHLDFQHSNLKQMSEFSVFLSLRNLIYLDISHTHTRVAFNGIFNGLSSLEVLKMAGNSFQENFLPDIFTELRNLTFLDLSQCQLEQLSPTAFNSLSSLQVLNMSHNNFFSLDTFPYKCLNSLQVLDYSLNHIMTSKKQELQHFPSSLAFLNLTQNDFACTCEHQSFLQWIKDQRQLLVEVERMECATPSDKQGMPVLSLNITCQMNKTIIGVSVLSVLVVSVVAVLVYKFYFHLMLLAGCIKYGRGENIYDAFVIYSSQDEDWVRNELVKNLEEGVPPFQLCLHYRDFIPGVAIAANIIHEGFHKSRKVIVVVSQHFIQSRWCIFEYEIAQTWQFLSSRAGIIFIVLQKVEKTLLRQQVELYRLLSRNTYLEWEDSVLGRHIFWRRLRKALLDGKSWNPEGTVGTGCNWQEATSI
Sequence of Toll-like receptor 5 (Homo sapiens) (O60602 whole entry): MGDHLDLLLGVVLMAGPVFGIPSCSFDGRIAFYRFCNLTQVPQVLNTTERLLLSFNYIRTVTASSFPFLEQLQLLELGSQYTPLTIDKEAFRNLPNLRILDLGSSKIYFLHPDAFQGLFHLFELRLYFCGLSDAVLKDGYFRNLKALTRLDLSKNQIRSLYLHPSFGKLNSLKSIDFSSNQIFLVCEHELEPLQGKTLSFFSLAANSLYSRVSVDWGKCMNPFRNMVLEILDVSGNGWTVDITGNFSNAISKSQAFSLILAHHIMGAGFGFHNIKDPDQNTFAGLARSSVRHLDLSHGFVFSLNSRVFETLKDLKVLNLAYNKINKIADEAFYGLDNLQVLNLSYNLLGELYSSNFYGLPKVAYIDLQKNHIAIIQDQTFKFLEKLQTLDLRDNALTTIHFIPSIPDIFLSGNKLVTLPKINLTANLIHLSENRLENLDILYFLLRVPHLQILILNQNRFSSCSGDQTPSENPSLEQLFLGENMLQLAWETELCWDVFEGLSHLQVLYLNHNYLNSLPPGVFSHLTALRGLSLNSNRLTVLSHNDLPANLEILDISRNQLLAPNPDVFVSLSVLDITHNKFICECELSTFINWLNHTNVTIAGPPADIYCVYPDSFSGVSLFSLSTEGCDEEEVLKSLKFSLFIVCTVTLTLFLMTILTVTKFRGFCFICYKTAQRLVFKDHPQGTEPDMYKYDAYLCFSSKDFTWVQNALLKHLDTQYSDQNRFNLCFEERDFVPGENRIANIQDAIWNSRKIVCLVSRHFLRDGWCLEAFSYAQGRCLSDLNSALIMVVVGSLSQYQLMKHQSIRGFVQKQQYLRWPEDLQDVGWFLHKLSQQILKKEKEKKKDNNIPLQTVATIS

| Structure (SMILES) | Activity (PBMC [1]) | Activity (PBMC [2]) | Activity (PBMC [3]) | Activity [4] | EC50 (Toll-like receptor 8) [µM] | Activity (PBMC [5]) | Activity [6] | Activity [7] | Activity [8] | Activity [9] | Activity [10] | Activity [11] | Activity (Oryctolagus cuniculus) |
| --- | --- | --- | --- | --- | --- | --- | --- | --- | --- | --- | --- | --- | --- |
| CCCc1nc2c(N)nc3ccccc3c2s1 | Toxic |  |  |  |  |  |  |  |  |  |  |  |  |
| Cc1ncc(CO)c2c(Nc3ccccn3)c(NC[Si](C)(C)C)oc12 | Non-toxic | Non-toxic | Toxic | Dose-dependent effect | 4.99 | Toxic |  |  |  |  |  |  |  |
| CCCCNc1oc2c(C)ncc(CO)c2c1Nc1ccccn1 | Non-toxic |  |  | Dose-dependent effect | 9.38 |  |  |  |  |  |  |  |  |
| Nc1nccn2c(NC3CCCCC3)c(-c3ccccc3)nc12 |  |  |  |  |  |  | inactive | inactive | inactive | inactive | inactive | inactive |  |
| Cc1ncc(CO)c2c(Nc3ccccn3)c(NCc3ccccc3)oc12 | Non-toxic |  |  | Dose-dependent effect | 4.91 |  |  |  |  |  |  |  |  |
| CCCCc1nc2c(N)nccn2c1NCc1ccccc1 |  |  |  |  |  |  | inactive | inactive | inactive | inactive | inactive | inactive |  |
| c1ccc(CNc2c(-c3ccncc3)nc3cnccn23)cc1 |  |  |  |  |  |  | inactive | inactive | inactive | inactive | inactive | inactive |  |
| CC(C)(C)Nc1c(-c2ccncc2)nc2ccccn12 |  |  |  |  |  |  | inactive | inactive | inactive | inactive | inactive | inactive |  |
| Oc1ccccc1-c1nc2ccccn2c1NCc1ccccc1 |  |  |  |  |  |  | inactive | inactive | inactive | inactive | inactive | inactive |  |
| CCCCCNc1oc2c(C)ncc(CO)c2c1Nc1ccccn1 | Non-toxic | Non-toxic | Toxic | Dose-dependent effect | 5.81 | Toxic |  |  |  |  |  |  | Active |
| CCCCc1nc2c(N)nccn2c1Nc1ccc(OC)cc1 |  |  |  |  |  |  | inactive | inactive | inactive | inactive | inactive | inactive |  |
| c1ccc(CNc2c(-c3ccncc3)nc3ccccn23)cc1 |  |  |  |  |  |  | inactive | inactive | inactive | inactive | inactive | inactive |  |
| Oc1ccccc1-c1nc2ccccn2c1NC1CCCCC1 |  |  |  |  |  |  | inactive | inactive | inactive | inactive | inactive | inactive |  |
| c1ccc(CNc2c(-c3ccccc3)nc3cnccn23)cc1 |  |  |  |  |  |  | inactive | inactive | inactive | inactive | inactive | inactive |  |
| c1cc(-c2nc3cnccn3c2NC2CCCCC2)ccn1 |  |  |  |  |  |  | inactive | inactive | inactive | inactive | inactive | inactive |  |
| c1ccc(-c2nc3ccccn3c2NC2CCCCC2)cc1 |  |  |  |  |  |  | inactive | inactive | inactive | inactive | inactive | inactive |  |
| c1ccc(CNc2c(-c3ccccc3)nc3ccccn23)cc1 |  |  |  |  |  |  | inactive | inactive | inactive | inactive | inactive | inactive |  |
